This note sets out measurements from US20180105492A1, “COMPOUNDS DERIVED FROM 3-ALKYLAMINE-1H-INDOLYL ACRYLATE AND THEIR USE IN THE TREATMENT OF NEURODEGENERATIVE DISEASES” (FUNDACION PARA LA INVESTIGACION BIOMEDICA DEL HOSPITAL …, priority 2014, published 2018).

In assay [1] the test system is Nrf2 transcription factor (Nrf2-ARE). The assay is described as follows: Nrf2-ARE induction, luciferase activity in AREc32 (MCF7 cells stably transfected with ARE-LUC). The following applies: Homo sapiens, 24 h, basal = 1, read-out: Relative Luciferase activity (response versus basal). Type of assay: cell-based. Here is the method: For the study of Nrf2 transcription factor, the cellular line AREC32 was used, which is characterized for being stably transfected with the reporter gene of Luciferase linked to the ARE sequence. In the presence electrophilic compounds or oxidative stress, Nrf2 factor binds to ARE sequences, activating luciferase expression and producing a proportional quantity of luciferase. The AREc32 cells were cultured in DMEM media with glutamax, supplemented with 10% fetal bovine serum (FBS), 1% penicillin-streptomycin and 1.6% geneticine (G418) (obtained from GIBCO, Madrid, Spain). Cells were cultured in 75 cm flasks with 11 mL of specific media, incubated at 37° C. and 5% of CO2. Cells were passed every 4-6 days (1:4), whenever the confluence reached 80%. For the experiments, cells were cultured in transparent surface 96 well plates at a density of […] with 100 μL/well. After 24 h in culture, cells were treated with the compounds at different concentrations (1, 10, 30 and 60 μM) during 24 h at 37° C. and 5% CO2. In every experiment it was also included a basal variable, a variable with 10 μM tert-butyl hydroquinone (TBHQ) (positive control) and the variables of the study in a final volume of 100 μL. After an incubation of 24 h with the compounds, luciferase activity was measured by bioluminescence using the commercial kit “Luciferase assay system” (Promega E1500). For that, treatments were removed and cells were washed with 100 μL of PBS 0.1 M. After washing, 20 μL of “lysis buffer” reactive was added to each well. 10 minutes later, luminescence was measured using the multi-well reader FluoStar optima (BMG labtech).
Luminescence was measured in arbitrary units and is directly proportional to luciferase quantity in the wells, which is also directly proportional to Nrf2 transcription factor induction by the specific compound at the established concentration. Measurements were made in duplicate and values were normalized to the basal luminescence value, considered as 1.
The results of Nrf2 induction obtained for the compounds 1 to 16 are shown in Table 1 and are expressed as induction, considering 1 the non-treated cells.

For assay [2] the test system is unchanged. Described as above. The following applies: Homo sapiens, 24 h, basal = 1, read-out: Relative Luciferase activity (response versus basal). Format: cell-based. The source holds these as a separate data set.

As to `CCOC(=O)C=Cc1ccccc1` [Ethyl Cinnamate, reference compound], the fold induction at 10 µM in assay [1] (10 μM) came out at 1.46 ± 0.1. The fold induction at 30 µM in assay [1] (30 μM) stood at 1.4 ± 0.1. Also, in assay [1] (60 μM), the fold induction at 60 µM was 1.55 ± 0.1.
Turning to `CC(C)(C)c1cc(O)ccc1O` [TBHQ, tert-butyl hydroquinone], the fold induction at 1 µM in assay [1] (1 μM) was 2.19 ± 0.1. Moreover, the fold induction at 3 µM in assay [2] (3 μM) worked out at 3.83 ± 0.3. In assay [2] (6 μM), the fold induction at 6 µM is 6.1 ± 0.1.
